Measured values reported in patent US12295959B2 (priority 2021, dated 2025).

Key:
[1] = tested on: 5HT2A sensor; type: cell-based
[2] = tested on: mice; experiment: Head-twitch response (HTR); type: in vivo
Procedure: Head twitch response (HTR) experiments. C57BL/6J Mice (9-10 weeks old) are housed following an IACUC approved protocol. The mice are habituated in the test cage for at least 30 min, injected intraperitoneally with compound (injection volume 5 ml/kg), returned to the empty test cage, and filmed for 20 minutes. Each video is scored for the number of head-twitches by a trained observer blinded to treatment condition.

[3] = tested on: rat cortical neurons; experiment: Neurite outgrowth assay; type: cell-based; set-up: key: A: Statistically significant mean increase as a percent of DMSO control at 10 μM or less.; B: No statistically significant mean increase as a percent of DMSO control at 10 μM or less; details: 72 h, 10 μM or less, vs DMSO control
Excerpt: Neurite Outgrowth Assay. Changes in the pattern of neurite outgrowth have been implicated in psychiatric and neurodegenerative disorders as well as traumatic injuries. The discovery of new compounds that can positively affect neuritogenesis are important for developing new therapeutics for neurological diseases. Measurement of neurite outgrowth of rat cortical neurons using an automated image-based assay was used to determine the neuroplastic effects of the compounds of the present invention. The neurite outgrowth assay was performed at Neurofit SAS (France) as described below.
Pregnant Wistar rats (Janvier; France) were used for the study. They were delivered 6 days before their use. Upon arrival at Neurofit animal facility, they were housed one per cage and maintained in a room with controlled temperature (21-22° C.) and a reversed light-dark cycle (12 h/12 h; lights on: 17:30-05:30; lights off: 05:30-17:30) with food and water available ad libitum.
Female Wistar rats of 17 days gestation were killed by cervical dislocation and the fetuses were removed from the uterus. Their brains were placed in ice-cold medium of Leibovitz (L15, Gibco, Fisher bioblock, France). Cortices were dissected and meninges were carefully removed. The cortical neurons were dissociated by trypsinization for 30 min at 37° C. (trypsin-EDTA, Gibco) in presence of 0.1 mg/ml DNAse I (Roche, France). The reaction was stopped by addition of Dulbecco's Modified Eagle Medium (DMEM; Gibco) with 10% of fetal bovine serum (FBS; Gibco). The suspension was triturated with a 10-ml pipette and using a needle syringe 21G and centrifuged at 350×g for 10 min at room temperature. The pellet of dissociated cells was resuspended in a medium consisting of Neurobasal (Gibco) supplemented with 2% B27 supplement (Gibco), 0.5 mM L-Glutamine (Gibco), an antibiotic-antimicotic mixture. Viable cells were counted in a Neubauer cytometer using the trypan blue exclusion test (Sigma). Cells were seeded at a density of 10000 cells per well in 96-well plate (Costar) precoated with poly-L-lysine. Test compound at different concentrations were added to the cultures. Donepezil (positive control) was tested at 250 nM.
After 72 h (3 days) of plating, cultures were fixed with paraformaldehyde in PBS (4%, Sigma) for 30 min at 4° C. Then, cells were successively permeabilized with 0.1% Triton X100 for 30 min, saturated with PBS containing 3% of BSA and were incubated 1 h with anti-beta III tubulin antibody (Sigma) at 1/10 000 in PBS containing 0.5% of BSA. Cells were washed three times with PBS containing 0.5% of BSA, and they were incubated 1 h with goat anti-mouse antibody coupled with AF488 (Invitrogen A 11001) diluted at 1/1000 in PBS containing 0.5% of BSA. Finally, nuclei were staining with DAPI 1 mg/ml at 1/1000 in PBS containing 0.5% of BSA. After rinsing with PBS, the plate was filmed and neurite networks were examined and analyzed using High-Content Screening (CellInsight, Thermo Scientific). The average number of neurites per neuron and the average total length of neurites per neuron were the main parameters analyzed. Analysis of data was performed using analysis of variance (ANOVA). The Fisher's Protected Least Significant Difference test was used for multiple comparisons. A p value≤0.05 was considered significant. The software used is StatView 5.0 from SAS Institut.

[4] = molecular target: T1, 5-HT2A (Homo sapiens, UniProt P28223); experiment: Serotonin 5-HT2A in vitro cellular IPOne agonism assay (HTRF); type: cell-based; set-up: host or cells: CHO-K1; details: CHO-K1 cells, agonist mode
T1 sequence (P28223 whole entry): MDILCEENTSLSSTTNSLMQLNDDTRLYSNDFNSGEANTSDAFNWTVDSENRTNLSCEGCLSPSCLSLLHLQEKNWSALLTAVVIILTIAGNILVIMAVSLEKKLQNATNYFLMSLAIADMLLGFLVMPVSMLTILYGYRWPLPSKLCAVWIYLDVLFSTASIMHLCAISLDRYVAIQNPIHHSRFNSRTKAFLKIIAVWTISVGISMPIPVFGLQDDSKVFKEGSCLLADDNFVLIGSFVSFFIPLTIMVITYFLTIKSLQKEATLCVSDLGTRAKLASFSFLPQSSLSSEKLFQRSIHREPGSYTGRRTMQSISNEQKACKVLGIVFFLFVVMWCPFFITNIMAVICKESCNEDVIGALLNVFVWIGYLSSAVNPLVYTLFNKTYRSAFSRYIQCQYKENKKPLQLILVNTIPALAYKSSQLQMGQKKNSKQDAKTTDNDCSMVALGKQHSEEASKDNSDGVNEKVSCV
Procedure: (§1) Serotonin 5-HT2A In Vitro Cellular IPOne Agonism Assay. The 5-HT2A IPOne HTRF assay was performed at Epics Therapeutics S.A. (Belgium, FAST-0505I) using conventional methods. Briefly, CHO-K1 cells expressing human recombinant 5-HT2A receptor grown to mid-log phase in culture media without antibiotics were detached with PBS-EDTA, centrifuged, and resuspended in medium without antibiotics buffer. 20,000 cells were distributed in a 96 well plate and incubated overnight at 37° C. with 5% CO2.
For agonist testing, the medium was removed and 20 μl of assay buffer plus 20 μl of test compound or reference agonist are added in each well. The plate was incubated for 60 min. at 37° C. with 5% CO2.
(§2) After addition of the lysis buffer containing IP1-d2 and anti-IP1 cryptate detection reagents, plates were incubated 1-hour at room temperature, and fluorescence ratios were measured according to the manufacturer specification, with the HTRF kit.

[5] = molecular target: T1, 5-HT2A; experiment: Serotonin 5-HT2A in vitro cellular IPOne antagonism assay; type: cell-based; set-up: host or cells: CHO-K1; details: CHO-K1 cells, antagonist mode, reference agonist a-Me-5HT
Procedure: as §1, with “Serotonin 5-HT2A and 5-HT2C In Vitro” for “Serotonin 5-HT2A In Vitro”, “Cellular IPOne Antagonism Assay. The” for “Cellular IPOne Agonism Assay. The”, “(Belgium, FAST-0505I) in antagonism mode using conventional” for “(Belgium, FAST-0505I) using conventional”
For antagonist testing, a reference agonist a-Me-5HT was added and fluorescence signal monitored for several minutes, followed by addition of 20 μl of assay buffer plus 20 μl of test compound or reference antagonist ketanserin, in each well. The plate was incubated for 60 min. at 37° C. with 5% CO2.
as §2

[6] = molecular target: T1, 5-HT2A; experiment: Serotonin 5-HT2A in vitro radioligand binding competition assay ([3H]-DOI); set-up: purchased Epics Therapeutics S.A. (Belgium) FAST-0505B; host or cells: membrane extracts; details: [3H]-DOI competition, membrane extracts
Procedure: Serotonin 5-HT2A In Vitro Radioligand Binding Competition Assay. The 5-HT2A radioligand binding competition assay was performed at Epics Therapeutics S.A. (Belgium, FAST-0505B) using conventional methods. Briefly, competition binding was performed in duplicate in the wells of a 96 well plate (Master Block, Greiner, 786201) containing binding buffer (optimized for each receptor), membrane extracts (amount of protein/well optimized for each receptor), radiotracer [^3H]-DOI (final concentration optimized for each receptor) and test compound. Nonspecific binding was determined by co-incubation with 200-fold excess of cold competitor. The samples were incubated in a final volume of 0.1 ml at a temperature and for a duration optimized for each receptor and then filtered over filter plates. Filters were washed six times with 0.5 ml of ice-cold washing buffer (optimized for each receptor) and 50 μl of Microscint 20 (Packard) was added in each well. The plates were incubated 15 min on an orbital shaker and then counted with a TopCount™ for 1 min/well.

## CCN(CC)C(=O)[C@@H]1C=C2c3cccc4[nH]c(Br)c(c34)C[C@H]2N(C)C1 [BOL148]
[1]
  activation of the 5HT2A sensor assay in agonist mode: do not activate

## COc1ccc2[nH]cc(CCN(C)C)c2c1 [Compound 5-MeO-DMT, 5-MeO-DMT]
[2]
  head-twitch response (HTR): robust, dose-dependent head-twitch response
[1]
  activation of the 5HT2A sensor assay in agonist mode: activate

## CCN(CC)CCc1c[nH]c2cc(F)ccc12 [Compound 6-F-DET, 6-F-DET]
[1]
  activation of the 5HT2A sensor assay in agonist mode: do not activate

## COc1ccc2c(CCN(C)C)c[nH]c2c1 [Compound 6-MeO-DMT, 6-MeO-DMT]
[2]
  head-twitch response (HTR): does not produce a HTR
[1]
  activation of the 5HT2A sensor assay in agonist mode: do not activate

## CN1CCc2[nH]c3cc(Oc4ccccc4)ccc3c2CC1 [Compound 12, 3-methyl-8-phenoxy-1,2,3,4,5,6-hexahydroazepino[4,5-b]indole]
[3]
  Increase in Neurite Branching: A
  Increase in Neurite Length: A
  Increase in Neurite Number: A
[4]
  EC50: > 10000 nM
[5]
  IC50: 101 to 1000 nM
[6]
  IC50: 101 to 1000 nM

## CN1CCc2c(n(C)c3cc(Oc4ccccc4)ccc23)CC1 [Compound 14, 3,6-dimethyl-8-phenoxy-1,2,3,4,5,6-hexahydroazepino[4,5-b]indole]
[3]
  Increase in Neurite Branching: B
  Increase in Neurite Length: A
  Increase in Neurite Number: B
[4]
  EC50: > 10000 nM
[5]
  IC50: 1000 to 10000 nM
[6]
  IC50: 1000 to 10000 nM

## CN1CCc2[nH]c3cc(Oc4ccc(F)cc4)ccc3c2CC1 [Compound 16, 8-(4-fluorophenoxy)-3-methyl-1,2,3,4,5,6-hexahydroazepino[4,5-b]indole]
[3]
  Increase in Neurite Branching: A
  Increase in Neurite Length: A
  Increase in Neurite Number: B
[4]
  EC50: > 10000 nM
[5]
  IC50: 101 to 1000 nM
[6]
  IC50: 101 to 1000 nM

## CN1CCc2c(n(C)c3cc(Oc4ccc(F)cc4)ccc23)CC1 [Compound 18, 8-(4-fluorophenoxy)-3,6-dimethyl-1,2,3,4,5,6-hexahydroazepino[4,5-b]indole]
[3]
  Increase in Neurite Branching: A
  Increase in Neurite Length: A
  Increase in Neurite Number: A
[4]
  EC50: > 10000 nM
[5]
  IC50: 101 to 1000 nM
[6]
  IC50: 101 to 1000 nM

## Cn1c2c(c3c(OCc4ccccc4)cccc31)CCNCC2 [Compound 19, 10-(benzyloxy)-6-methyl-1,2,3,4,5,6-hexahydroazepino[4,5-b]indole]
[3]
  Increase in Neurite Branching: B
  Increase in Neurite Length: B
  Increase in Neurite Number: B
[4]
  EC50: 1000 to 10000 nM
[5]
  IC50: 101 to 1000 nM
[6]
  IC50: 101 to 1000 nM

## CN1CCc2[nH]c3cccc(Oc4ccc(F)cc4)c3c2CC1 [Compound 22, 10-(4-fluorophenoxy)-3-methyl-1,2,3,4,5,6-hexahydroazepino[4,5-b]indole]
[3]
  Increase in Neurite Branching: A
  Increase in Neurite Length: A
  Increase in Neurite Number: A
[4]
  EC50: > 10000 nM
[5]
  IC50: 10 to 100 nM
[6]
  IC50: 10 to 100 nM

## CN1CCc2c(n(C)c3cccc(Oc4ccc(F)cc4)c23)CC1 [Compound 24, 10-(4-fluorophenoxy)-3,6-dimethyl-1,2,3,4,5,6-hexahydroazepino[4,5-b]indole]
[3]
  Increase in Neurite Branching: B
  Increase in Neurite Length: A
  Increase in Neurite Number: B
[4]
  EC50: > 10000 nM
[5]
  IC50: 10 to 100 nM
[6]
  IC50: 10 to 100 nM

## c1ccc(COc2ccc3[nH]c4c(c3c2)CCNCC4)cc1 [Compound 25, 9-(benzyloxy)-1,2,3,4,5,6-hexahydroazepino[4,5-b]indole]
[3]
  Increase in Neurite Length: A
[4]
  EC50: > 10000 nM
[5]
  IC50: 101 to 1000 nM
[6]
  IC50: 101 to 1000 nM

## CN1CCc2[nH]c3ccc(OCc4ccccc4)cc3c2CC1 [Compound 26, 9-(benzyloxy)-3-methyl-1,2,3,4,5,6-hexahydroazepino[4,5-b]indole]
[3]
  Increase in Neurite Branching: A
  Increase in Neurite Length: A
  Increase in Neurite Number: A
[4]
  EC50: > 10000 nM
[5]
  IC50: 101 to 1000 nM
[6]
  IC50: 101 to 1000 nM

## CN1CCc2[nH]c3c(OCc4ccccc4)cccc3c2CC1 [Compound 28, 7-(benzyloxy)-3-methyl-1,2,3,4,5,6-hexahydroazepino[4,5-b]indole]
[3]
  Increase in Neurite Branching: A
  Increase in Neurite Length: A
  Increase in Neurite Number: A
[4]
  EC50: > 10000 nM
[5]
  IC50: 10 to 100 nM
[6]
  IC50: 10 to 100 nM

## CN1CCc2[nH]c3c(Br)ccc(OCc4ccccc4)c3c2CC1 [Compound 29, 10-(benzyloxy)-7-bromo-3-methyl-1,2,3,4,5,6-hexahydroazepino[4,5-b]indole]
[3]
  Increase in Neurite Branching: B
  Increase in Neurite Length: A
  Increase in Neurite Number: B
[4]
  EC50: 10 to 100 nM
[5]
  IC50: 10 to 100 nM
[6]
  IC50: 10 to 100 nM

## CN(C)CCc1c[nH]c2ccccc12 [DMT, N,N-dimethyltryptamine]
[1]
  activation of the 5HT2A sensor assay in agonist mode: activate

## COc1cc(CC(C)N)c(OC)cc1I (stereo not drawn) [DOI]
[1]
  activation of the 5HT2A sensor assay in agonist mode: activate

## O=C(c1ccc(F)cc1)C1CCN(CCn2c(=O)[nH]c3ccccc3c2=O)CC1 [Ketanserin]
[1]
  activation of the 5HT2A sensor assay in agonist mode: do not activate

## CNC(C)Cc1ccc2c(c1)OCO2 [L-MDMA]
[1]
  activation of the 5HT2A sensor assay in agonist mode: do not activate

## CCN(CC)C(=O)[C@@H]1C=C2c3cccc4[nH]cc(c34)C[C@H]2N(C)C1 [LSD]
[1]
  activation of the 5HT2A sensor assay in agonist mode: activate
